Records with an inconclusive call do not appear. Bounds are passed on as bounds.

In the assay the test system is LMP1-induced NF-kappaB luciferase reporter cells, luminescence. The experiment in a line: LMP1-driven NF-kB reporter inhibition, dose response, cell-based, luciferase reporter, luminescence, dry powder, set 2 (AID 624376). A general note: A reporter such as luciferase makes a cellular process visible.
A word on the AC50: it is the concentration giving half of the maximal activity seen. As to `O=C(Nc1ccc(C(F)(F)F)cc1)Nc1ccc2c(c1)[C@H]1C[C@@H](CC(=O)N3CCc4ccccc4C3)O[C@@H](CO)[C@H]1O2`, the half-maximal activity concentration (AC50) was 27.9 µM.

For `CN(C)C(=O)c1cccc(-c2cccc(-c3nc(C(=O)NCc4ccccc4)cc4c3[C@@H](CCO)N([S@](=O)C(C)(C)C)C4)c2)c1`, the AC50 is 16.9 µM. For the compound `CN(C)C(=O)c1ccc(-c2cccc(-c3nc(C(=O)NCc4ccccc4)cc4c3[C@@H](CCO)N([S@](=O)C(C)(C)C)C4)c2)cc1`, the AC50 is 13.7 µM. For the compound `Cc1cc(C(=O)Nc2ccc3c(c2)C(=O)N(C)[C@@H]2CC[C@H](CC(=O)NCc4ccc(-c5ccccc5)cc4)O[C@H]2CO3)no1`, the AC50 is 1.6 µM. Consider `COc1cccc(C#Cc2ccc([C@@H]3[C@H](C#N)N(C(=O)c4ccccn4)[C@H]3CO)cc2)c1`, for which the AC50 was 29.5 µM. `Cc1cc(C(=O)Nc2ccc3c(c2)C(=O)N(C)[C@H]2CC[C@@H](CC(=O)NCc4ccc(-c5ccccc5)cc4)O[C@H]2CO3)no1`: the AC50 was 10.8 µM. With `CN(C)c1ccc2c(c1)[C@@H]1C[C@@H](CC(=O)NCc3ccc(Oc4ccccc4)cc3)O[C@H](CO)[C@@H]1O2`, the AC50 is 21.6 µM. For the compound `O=C(C[C@@H]1CC[C@@H]2[C@H](COC[C@H](O)CN2Cc2ccc3c(c2)OCO3)O1)Nc1ccc(-c2ccccc2)cc1`, the AC50 was 7.97 µM. In the case of `O=C(C[C@H]1CC[C@@H]2[C@H](COC[C@H](O)CN2Cc2ccc(Oc3ccccc3)cc2)O1)N1CCc2ccccc2C1`, the half-maximal activity concentration (AC50) was 34.5 µM.

As to `N#C[C@H]1[C@@H](c2ccc(-c3cccnc3)cc2)[C@@H](CO)N1C(=O)Nc1ccc(F)cc1`, the AC50 is 13.9 µM. On to `COc1ccccc1C#Cc1ccc([C@H]2[C@H](C#N)N(C(=O)C3CC3)[C@H]2CO)cc1`, for which the AC50 was 30.5 µM. As for `C[C@H]1CN([C@@H](C)CO)C(=O)c2cc(C#Cc3ccccc3F)cnc2O[C@@H]1CN(C)C(=O)C1CCCCC1`, the AC50 is 27.7 µM. For the compound `COc1ccccc1C#Cc1ccc2c(c1)O[C@H](CN(C)Cc1cccnc1)[C@@H](C)CN([C@@H](C)CO)S2(=O)=O`, the half-maximal activity concentration (AC50) was 13.9 µM.

For the compound `Cc1cc(C(=O)Nc2ccc3c(c2)C(=O)N(C)[C@@H]2CC[C@@H](CC(=O)NCc4ccc(-c5ccccc5)cc4)O[C@H]2CO3)no1`, the AC50 is 25.9 µM. In the case of `CC(C)NC(=O)N1Cc2cc(C(=O)NC3Cc4ccccc4C3)nc(-c3cccc(-c4cccnc4)c3)c2[C@@H]1CCO` it was 22 µM.

Consider `C[C@@H]1CN([C@@H](C)CO)S(=O)(=O)c2ccc(C#Cc3ccncc3)cc2O[C@H]1CN(C)C(=O)Nc1ccc2c(c1)OCO2`, for which the concentration at half-maximal activity (AC50) was 31.6 µM. Consider `O=C(C[C@@H]1C[C@@H]2c3cc(NS(=O)(=O)c4ccc(F)cc4)ccc3O[C@@H]2[C@@H](CO)O1)NCc1ccc(Oc2ccccc2)cc1`, for which the AC50 was 8.07 µM. As for `CCCNC(=O)c1cc2c(c(-c3cccc(-c4cccc(F)c4)c3)n1)[C@H](CCO)N([S@@](=O)C(C)(C)C)C2`, the AC50 is 22.7 µM.

Regarding `N#C[C@H]1[C@H](c2ccc(C#Cc3ccccc3F)cc2)[C@H](CO)N1C(=O)c1cccnc1`, the AC50 is 12.6 µM. In the case of `COc1ccc(-c2cccc(-c3nc(C(=O)NCC(F)(F)F)cc4c3[C@H](CCO)N([S@@](=O)C(C)(C)C)C4)c2)cc1`, the AC50 was 24.3 µM.

On to `O=C(C[C@@H]1C[C@H]2c3cc(NC(=O)c4ccc5c(c4)OCO5)ccc3O[C@H]2[C@H](CO)O1)NC1CCCCC1`, for which the AC50 was 16.8 µM. As to `CC(C)(C)[S@@](=O)N1Cc2cc(C(=O)NCc3ccccc3F)nc(-c3cccc(-c4cccnc4)c3)c2[C@H]1CCO`, the AC50 is 35.6 µM.

On to `N#C[C@H]1[C@H](c2ccc(C#Cc3ccccc3F)cc2)[C@@H](CO)N1C(=O)c1cccnc1`, for which the AC50 was 15 µM. Regarding `N#C[C@H]1N[C@H](CO)[C@H]1c1ccc(C#Cc2ccccc2F)cc1`, the AC50 was less than 0.26 µM. For the compound `C[C@H]1CN([C@@H](C)CO)S(=O)(=O)c2ccc(C#Cc3ccncc3)cc2O[C@H]1CN(C)C(=O)Nc1ccc2c(c1)OCO2`, the AC50 is 19.7 µM. Consider `C[C@H](CO)N1C[C@H](C)[C@H](CN(C)C(=O)NC2CCCCC2)Oc2cc(/C=C/c3ccccc3)ccc2S1(=O)=O`, for which the AC50 was 31 µM.

`O=C(Nc1ccc(C(F)(F)F)cc1)Nc1ccc2c(c1)[C@@H]1C[C@H](CC(=O)N3CCc4ccccc4C3)O[C@H](CO)[C@@H]1O2`: the AC50 is 18.3 µM. In the case of `CC(C)NC(=O)N1Cc2cc(C(=O)NC3Cc4ccccc4C3)nc(-c3cccc(-c4cccnc4)c3)c2[C@H]1CCO` it was 33.6 µM. In the case of `O=C(C[C@H]1C[C@H]2c3cc(NS(=O)(=O)c4ccc(F)cc4)ccc3O[C@H]2[C@H](CO)O1)NCc1ccc(Oc2ccccc2)cc1`, the AC50 was 10 µM. In the case of `O=C(C[C@@H]1CC[C@H]2[C@@H](COC[C@H](O)CN2Cc2ccc(Oc3ccccc3)cc2)O1)N1CCc2ccccc2C1` it was 19.7 µM; in that of `O=C(C[C@@H]1C[C@@H]2c3cc(NC(=O)c4ccc5c(c4)OCO5)ccc3O[C@@H]2[C@@H](CO)O1)NCc1ccc(Oc2ccccc2)cc1`, 9.85 µM. As for `COc1ccccc1C#Cc1ccc2c(c1)O[C@H](CN(C)Cc1cccnc1)[C@H](C)CN([C@@H](C)CO)S2(=O)=O`, the AC50 was 17.4 µM. In the case of `O=C(C[C@H]1C[C@H]2c3cc(NC(=O)c4ccc5c(c4)OCO5)ccc3O[C@H]2[C@H](CO)O1)NCc1ccc(Oc2ccccc2)cc1`, the AC50 is 18.7 µM.

As to `O=C(C[C@H]1CC[C@H]2[C@@H](COC[C@@H](O)CN2Cc2ccc3c(c2)OCO3)O1)Nc1ccc(-c2ccccc2)cc1`, the AC50 is 24.1 µM. Then `O=C(C[C@H]1C[C@@H]2c3cc(NS(=O)(=O)c4ccc(F)cc4)ccc3O[C@@H]2[C@@H](CO)O1)NCc1ccc(Oc2ccccc2)cc1`, with 13.5 µM.

The values above are taken from PubChem BioAssay AID624376 (Broad Institute, 2012).
